Values of other authors, collected in patent US20090148519A1, “PULSED-RELEASE PREPARATION HAVING IMPROVED DISINTEGRATION PROPERTIES IN VIVO” (priority 2005, published 2009).

Compound	half-life at pH 7
COc1ccnc(C[S+]([O-])c2nc3cc(OC(F)F)ccc3[nH]2)c1OC (centres unmarked) [pantoprazole]	39 hours
COCCCOc1ccnc(C[S+]([O-])c2nc3ccccc3[nH]2)c1C (centres unmarked) [rabeprazole]	30 minutes
